The text below walks through data of ChEMBL document CHEMBL1156103, “Ionic liquid mediated and promoted eco-friendly preparation of thiazolidinone and pyrimidine nucleoside-thiazolidinone hybrids and their antiparasitic activities” (Bioorg Med Chem Lett, 2009).

What is called IC50 is the concentration needed to halve the response being measured. A high value points to lower potency.

The test system of test [1] is Leishmania donovani. The test is described as follows: Antileishmanial activity against Leishmania donovani LV9 promastigotes after 72 hrs by MTT assay. In kind it is functional, organism-based. As to conditions: LV9, 72 h.
In test [2] the test system is Trypanosoma brucei brucei. Nature of the test: Antitrypanosomal activity against Trypanosoma brucei brucei GVR 35 trypomastigotes after 72 hrs by MTT assay. In kind it is functional, organism-based. As to conditions: GVR 35, 72 h. (Tetrazolium assays rely on reduction of a dye to a coloured formazan, in cell work by metabolically active cells.)

With `CC(=O)OC[C@H]1O[C@@H](n2cc(C3SCC(=O)N3c3ccc(C)cc3)c(=O)[nH]c2=O)C[C@@H]1OC(C)=O` (some centres undefined), the IC50 in test [1] is 100 µM; in test [2], above 100 µM.
On the same counts, the results for `CC(=O)OC[C@H]1O[C@@H](n2cc(C3SCC(=O)N3c3ccc(F)cc3)c(=O)[nH]c2=O)C[C@@H]1OC(C)=O` (some centres undefined) are 50 µM and above 100 µM.
For the compound `CC(=O)OC[C@H]1O[C@@H](n2cc(C3SCC(=O)N3c3ccccc3)c(=O)[nH]c2=O)C[C@@H]1OC(C)=O` (some centres undefined), the figures for the IC50 in test [1] and in test [2] were 50 µM and above 100 µM, respectively.
For `CC(=O)OC[C@H]1O[C@@H](n2cc(C3SCC(=O)N3c3ccccn3)c(=O)[nH]c2=O)C[C@@H]1OC(C)=O` (some centres undefined), the half-maximal inhibitory concentration (IC50) in test [1] and in test [2] was above 100 µM each time.
With `CC(=O)OC[C@H]1O[C@@H](n2cc(C3SCC(=O)N3c3cccc([N+](=O)[O-])c3)c(=O)[nH]c2=O)C[C@@H]1OC(C)=O` (some centres undefined), the IC50 in test [1] and in test [2] was above 100 µM in each case.
For `CC(=O)OC[C@H]1O[C@@H](n2cc(C3SCC(=O)N3c3cccc(Br)n3)c(=O)[nH]c2=O)C[C@@H]1OC(C)=O` (some centres undefined), the IC50 is 50 µM in test [1] and above 100 µM in test [2].
Take `CC(=O)OC[C@H]1O[C@@H](n2cc(C3SCC(=O)N3c3ccc(Cl)cc3)c(=O)[nH]c2=O)C[C@@H]1OC(C)=O` (some centres undefined): the IC50 in test [1] was 25 µM; in test [2], above 100 µM.
